From patent publication US5773263A, “Production aflastatin A from streptomyces sp., a pharmaceutical composition and methods of use” (Morinaga & Co., Ltd., priority 1996, dated 1998)
≈ marks a conversion by molar mass, not a printed value. Where “and” joins values, the source holds several entries; their conditions need not be identical. Equal values may be shown once.

Key:
[1] = system: Candida albicans IFO 1594; test: Antimicrobial spectrum, agar dilution MIC; type: cell-based; details: medium C, 30 °C, 48 hrs
Method: (§1) Conditions for the measurements of the antimicrobial sepctra are as follows:
(§2) 80 mg of aflastatin A was dissolved in 4 ml of dimethyl sulfoxide (DMSO). This solution was diluted with DMSO to prepare a dilution series by two times as test solutions. The test solutions were filtrated with a filter and sterilized. 50 μl of each of them was added to 10 ml of a sterilized agar medium at 60° C. to prepare a dilution series of agar media. To each of the agar media, test strains were inoculated for antimicrobial activity. Media used for the tests are as follows:
(§3) C: Sabouraud agar (manufactured by Nihon Suisan K.K.)

[2] = system: Saccharomyces cerevisiae IFO 0250; test: Antimicrobial spectrum, agar dilution MIC; type: cell-based; details: medium C, 30 °C, 48 hrs
Method: as §1, §2, §3

[3] = system: Aspergillus parasiticus NRRL 2999; test: Antimicrobial spectrum, agar dilution MIC; type: cell-based; details: medium B, 27 °C, 48 hrs
Method: as §1, §2
B: Potato dextrose agar (manufactured by Nihon Suisan K.K.)

[4] = system: Trichophyton mentagrophytes IFO 5809; test: Antimicrobial spectrum, agar dilution MIC; type: cell-based; details: medium C, 30 °C, 48 hrs
[5] = system: Aspergillus parasiticus NRRL 2999; set-up: key: -: no growth; +: growth delayed; ++: fine growth; details: in vivo
[6] = system: Aspergillus parasiticus NRRL 2999; type: cell-based
[7] = system: ddy series male mice; test: Toxicity, single administration to mice; type: in vivo
Method: Aflastatin A was suspended in a 0.25% carboxymethylcellulose solution and the suspension was administered to ddy series male mice. […] By single oral administration, no mice died in an administered amount of 1,000 mg/kg or less.

[8] = system: adenocarcinoma 755; test: Antitumor activity, subcutaneously transplanted adenocarcinoma 755 in BDFI mice; type: in vivo, mouse; details: for Antitumor activity / Weight of tumor: four successive days, day 14; for Antitumor activity: control 100.0; for Weight of tumor: mean ± SD of six mice, control 1617.8 ± 179.07
Method: BDFI mice having a weight of from 21.0 to 24.3 g were divided into four groups each being 6 mice. A physiological saline suspension of adenocarcinoma 755 cells collected from subcultured 11th day mouse and adjusted, was transplanted subcutaneously at a right ventral portion of each mouse at a rate of 5×10^5 cells/0.5 ml/mouse.
The day of transplantation was regarded as the day 0. From the next day, intraperitoneal administration was carried out once a day for four successive days to each group at a rate of aflastatin A administration of 0.3 mg/kg/day, 1 mg/kg/day, or 3 mg/kg/day. The aflastatin A was suspended in a 0.25% carboxymethyl cellulose solution (manufactured by Nakarai Tesk) and administered at a dose of 10 ml/kg. The rest of the four groups was used as a control.
By the day 14, general conditions were observed every day, and the mice were clubbed to death at the day 14. Solid tumors were collected and their wet weights were measured. From the measured tumor weights, inhibitory ratios against the control group were calculated and antitumor activities were determined. The tumor weight is represented by an average of six mice±standard deviation.

[9] = system: Escherichia coli IFO 14249; test: Antimicrobial spectrum, agar dilution MIC; type: cell-based; details: medium A, 37 °C, 24 hrs
Method: as §1, §2
(§4) A: Nutrient agar (manufactured by Nihon Suisan K.K.)

[10] = system: Staphylococcus aureus IFO 13276; test: Antimicrobial spectrum, agar dilution MIC; type: cell-based; details: medium A, 37 °C, 24 hrs
Method: as §1, §2, §4

[11] = system: Bacillus subtilis IAM 1145; test: Antimicrobial spectrum, agar dilution MIC; type: cell-based; details: medium A, 37 °C, 24 hrs
Method: as §1, §2, §4

[12] = system: Psuedomonas aeruginosa IAM 1514; test: Antimicrobial spectrum, agar dilution MIC; type: cell-based; details: medium A, 37 °C, 24 hrs
Method: as §1, §2, §4

[13] = system: Pyricularia oryzae IFO 30732; type: cell-based
[14] = system: Fusarium graminearum ATCC 34909; type: cell-based
[15] = Solubility; type: physicochemical

In the case of `CCCCCCCCCC(O)C[C@]1(O)O[C@H](CC(O)C(O)C(O)C(O)C(O)CC(O)CC(O)CC(O)C(C)C(O)C(C)C(O)CC(O)C(C)C(O)C(C)C(O)C(C)C(O)C(O)CC(C)CC(C)/C=C(C)/C(O)=C2/C(=O)C(C)N(C)C2=O)[C@@H](O)[C@H](O)[C@@H]1O` (stereo partly drawn) [aflastatin A], the MIC [1] is reported as 0.39 µg/mL (≈ 0.31 µM), the MIC [2] is reported as under 0.19 µg/mL and the MIC [3] is reported as over 100 µg/mL. For the same molecule, the MIC [4] was 0.39 µg/mL (≈ 0.31 µM), the Growth of strains [5] was “++” and the Colony diameter [6] was 7.8 ± 0.2 cm and 6.5 ± 0.2 cm and 5.5 ± 0.3 cm. The LD50 ([7]; single intraperitoneal administration, suspended in 0.25% carboxymethylcellulose) was 6.17 mg/kg, the Mortality ([7]; single oral administration, 1,000 mg/kg or less) was “no mice died” and the Antitumor activity ([8]; 0.3 mg/kg/day i.p.) was 42.0%. The Weight of tumor ([8]; 0.3 mg/kg/day i.p.) was 680.2 ± 176.63 mg, the Antitumor activity ([8]; 1 mg/kg/day i.p.) was 24.3% and the Weight of tumor ([8]; 1 mg/kg/day i.p.) was 392.8 ± 87.07 mg. For the same molecule, the Dose assessment ([8]; 3 mg/kg/day i.p.) was “overdose”, the “Mortality (printed in the column weight of tumor)” value ([8]; 3 mg/kg/day i.p.) was “All mice died by the day 3” and the MIC [9] was over 100 µg/mL. The MIC [10] was 0.78 µg/mL (≈ 0.62 µM), the MIC [11] was 0.39 µg/mL (≈ 0.31 µM) and the MIC [12] was over 100 µg/mL. The MIC [13] was over 0.19 µg/mL, the MIC [14] was over 100 µg/mL and the Solubility ([15]; aqueous butanol) was “slightly soluble”. For the same molecule, the Solubility ([15]; aqueous ethanol) was “slightly soluble”, the Solubility ([15]; dimethyl sulfoxide) was “Soluble” and the Solubility ([15]; glycerol) was “slightly soluble”. The Solubility ([15]; methanol) was “slightly soluble”, the Solubility ([15]; other organic solvents) was “practically insoluble” and the Solubility ([15]; water) was “practically insoluble”.
